The subject of experiment [1] is male mice (Slc: ddy). In words: Analgesic effect examined by acetic acid-writhing test. It is filed as in vivo. The following applies: subcutaneous injection 30 minutes before 0.6% acetic acid i.p., writhings counted within 10 minutes, 7 mice per group. The procedure:
Example 8 Analgesic Effect Examined by Acetic Acid- Writhing Test:
Male mice (Slc: ddy) aged 5 weeks were divided into groups each having 7 animals. […] After 30 minutes, 0.6% acetic acid was intraperitoneally administered to each mouse in a dose of 0.1 ml/10 g. 10 minutes thereafter, the writhings thus induced were counted within 10 minutes. […] The acetic acid-writhing test was conducted according to a method reported by R. Koster, M. Anderson and E.I. Debeer [refer to Fed. Proc., 18, 412 (1959)].

In experiment [2] the test system is male mice (Slc: ddy). Kind of experiment: Analgesic examination by radiant heat-stimulation test (tail irradiation, pain threshold). It counts as in vivo. Particulars: for analgesic effect (pain threshold): range 0.03 to 1.0 mg/kg. As to the method:
Example 6 Analgesic Examination by Radiant Heat-Stimulation Test:
Each group had 7 animals. An hour after the injection, the analgesic effect of each compound was examined by radiant heat-stimulation test [refer to A.G. Hayes, M.J. Sheehan, M.B. Tyers; Brit. J. Pharmacol., 91, 111 - 115 (1987)]. Namely, the tail of each mouse was irradiated with intense light and the time required until the animal switched its tail was measured. The value thus measured was referred to as the pain threshold.

Experiment [3] relates to extirpated guinea pig ileum pieces. Kind of experiment: Transmural electric stimulation test on an extirpated guinea pig ileum piece (smooth muscle contraction). It counts as cell-based. The following applies: for pD₂: transmural electric stimulation 0.1 Hz, smooth muscle contraction. As to the method: Example 7 Transmural Electric Stimulation Test on an Extirpated Guinea Pig Ileum Piece:
The effects of the compounds were examined by applying transmural electric stimulation (0.1 Hz) to extirpated guinea pig ileum pieces while using the smooth muscle contraction as an indication [refer to H.K. Kopsterlitz, A.A. Waterfield; Annu. Rev. Pharmacol., 15, 29 - 47 (1975)].
The data shown in Table 1 were calculated according to a method reported by Arunlakshana and Schild [refer to 0. Arunlakashana, H.O. Schild; Brit. J. Pharmacol., 14, 48 - 58 (1959)]. Each value is expressed in mean ± standard deviation.

Setting [4] is: subcutaneous, an hour after the injection, p < 0.01 in Dunnett's t-test.
[5] abbreviates: subcutaneous, an hour after the injection.
Where [6] appears, read: antagonism by naloxone, method of Arunlakshana and Schild, mean ± standard deviation.

Where two headings read alike, the source gives them in different places.

Turning to `CC(C)=CCN1CCC2(C)c3cc(O)ccc3CC1C2C` (stereo not shown) [Pentazocine, reference compound], the ED50 in experiment [1] (Mus musculus, sc, read-out: ED₅₀) turned out to be 0.869 mg/kg.
Regarding `CCC(=O)Oc1ccc2c3c1O[C@H]1[C@H](SC(=O)CC)C=C[C@H]4[C@@H](C2)N(CC2CC2)CC[C@@]341` [Compound IX, 3-propionyl-6β-propionylthio-cyclopropylmethylnormorphine], the ED₅₀ in experiment [1] was 0.047 mg/kg.
For `CC(=O)S[C@@H]1C=C[C@H]2[C@H]3Cc4ccc(O)c5c4[C@@]2(CCN3CC2CC2)[C@H]1O5` [Compound VI, 6β-acetylthio-N-cyclopropylmethylnormorphine], the “dose with statistically significant analgesic effect” value in experiment [2] (setting [4]) is 1.0 mg/kg. Also, the “analgesic effect (pain threshold)” value in experiment [2] (setting [5]) is “analgesic effect depending on dose”. In experiment [3] (setting [6]), the “pA₂ (naloxone)” value is 7.75 ± 0.12. The same compound returned a pD₂ in experiment [3] (mean ± standard deviation) of 8.38 ± 0.06.
For `CN1CC[C@]23c4c5ccc(O)c4O[C@H]2[C@@H](O)C=C[C@H]3[C@H]1C5.Cl` [Morphine hydrochloride, reference compound], the “dose with statistically significant analgesic effect” value in experiment [2] (mouse, in vivo, sc) was at least 3.2 mg/kg. In addition, the “pA₂ (naloxone)” value in experiment [3] was found to be 8.45 ± 0.13.
On to `CC(=O)Oc1ccc2c3c1O[C@H]1[C@H](SC(C)=O)C=C[C@H]4[C@@H](C2)N(CC2CC2)CC[C@@]341.Cl` [Compound VII, 3-acetyl-6β-acetylthio-N-cyclopropylmethylnormorphine hydrochloride], for which the “dose with statistically significant analgesic effect” value in experiment [2] (setting [4]) is on record as 1.0 mg/kg. The “analgesic effect (pain threshold)” value in experiment [2] (setting [5]) is reported as “analgesic effect depending on dose”. In experiment [3] (setting [6]), the “pA₂ (naloxone)” value is recorded as 7.80 ± 0.13. Also, the pD₂ in experiment [3] (mean ± standard deviation) is on record as 9.01 ± 0.16. In experiment [1], this compound had an ED₅₀ of 0.062 mg/kg.
